Data set [1] deals with Na^+/K^+-ATPase activity in renal proximal tubular cells. In words: Na^+/K^+-ATPase activity (ouabain-sensitive ATPase). In kind it is cell-based, rabbit. The protocol:
(§1) Confluent monolayers of renal proximal tubular cells (day 6 after seeding) were exposed to 200 μM S-(1,2-dichlorovinyl)-L-cysteine (dissolved in water) for 1.75 hours followed by toxicant removal and addition of fresh culture media. This method produces approximately 50% cell death and loss 24 hours after the exposure. On days 1, 4, and 6 following S-(1,2-dichlorovinyl)-L-cysteine exposure, the ability of the remaining renal proximal tubular cells to regenerate and repair physiological function was monitored as described below. In some experiments, immediately after S-(1,2-dichlorovinyl)-L-cysteine exposure and after daily media change through day 6 after injury, collagen I (0, 5, 15, or 50 μg/ml), collagen IV (0, 5, 15, or 50 μg/ml), laminin (50 μg/ml), or cellular fibronectin (50 μg/ml) was added to the culture media of uninjured and S-(1,2-dichlorovinyl)-L-cysteine-injured renal proximal tubular cells grown in physiological concentrations of AscP. Exogenous collagens I and IV used in this study were triple helical and contained only α1 and α2 chains in conformations similar to those found in the renal basement membrane (3, 25). Laminin was a mixture of biologically active laminin chains found in most epithelial tissues (8, 50) and cellular fibronectin was composed of functional dimers (51).
On days 1 and 6 after sublethal S-(1,2-dichlorovinyl)-L-cysteine injury, total ATPase activity was measured using a modification of a previously described procedure (44). Briefly, renal proximal tubular cells cultured in 48-well cell culture clusters were scraped and incubated in dissociation buffer (5 mM HEPES (pH 7.4), 25 mM imidazole, 1% BSA, 0.065% sodium dodecyl sulfate (SDS)) for 10 min. at room temperature and placed on ice. The dissociated renal proximal tubular cells were then diluted 5-fold with additional dissociation buffer minus SDS. Aliquots of dissociated renal proximal tubular cells were combined with fresh ATPase assay buffer (2.54 mM MgCl2, 100 mM NaCl, 10 mM KCl, 5 mM HEPES, 10 U/ml lactate dehydrogenase, 7 U/ml pyruvate kinase, 2.54 mM Na2ATP, 2.54 mM phospho(enol)pyruvate, and 0.5 mM β-NADH). ATPase activity was measured under linear conditions spectrophotometrically as the oxidation of β-NADH to NAD^+ at 37° C. in the absence or presence of ouabain (0.1 mM) at a wavelength of 340 nm. Na^+/K^+-ATPase activity was calculated as total ATPase activity minus ouabain-insensitive ATPase activity.
Confluent monolayers of renal proximal tubular cells (day 6 after seeding) were exposed to 200 μM S-(1,2-dichlorovinyl)-L-cysteine (dissolved in water) for 1.75 hours followed by toxicant removal and addition of fresh culture media. This method produces approximately 50% cell death and loss 24 hours after the exposure. In some experiments, exogenous collagen IV (50 μg/ml), collagen I (50 μg/ml), or function-stimulating antibodies to collagen-binding integrin subunits α2 or β1 (5 μg/ml) was added daily to the culture media of S-(1,2-dichlorovinyl)-L-cysteine-injured renal proximal tubular cells cultured in the absence of pharmacological concentrations of L-ascorbic acid-2-phosphate. Function-stimulating antibodies to collagen-binding integrin α1 are not commercially available at this time. On days 1 and 6 following S-(1,2-dichlorovinyl)-L-cysteine exposure, active Na^+ transport or Na^+/K^+-ATPase activity, and collagen-binding integrin expression and/or localization in the remaining sublethally injured renal proximal tubular cells was determined as described below.
Total ATPase activity was measured as described above. […]

The subject of data set [2] is renal proximal tubular cells. Nature of the data set: Basal oxygen consumption (QO2), a measure of mitochondrial function. The conditions noted are these: for repair of basal QO2: day 6 after DCVC injury. In kind it is cell-based, rabbit. The protocol: as §1
On days 1, 4, and 6 after sublethal S-(1,2-dichlorovinyl)L-cysteine injury, renal proximal tubular cells bathed in 37° C. culture medium were gently detached from culture dishes with a rubber policeman and transferred to a 37° C. oxygen consumption (QO2) chamber. Basal renal proximal tubular cells QO2 was measured polarographically using a Clark-type electrode as described previously (36).

[3] abbreviates: one day after DCVC (200 μM), both 50 μM and 500 μM AscP.

`O=C1O[C@H]([C@@H](O)CO)C(O)=C1OP(=O)(O)O` [L-ascorbic acid-2-phosphate, L-Ascorbic acid-2-phosphate]: in data set [1] (day 6 after DCVC, 500 μM AscP), the “Na^+/K^+-ATPase activity higher than in injured RPTC in physiological AscP” value was “approximately 150%”. Besides, in data set [1] (uninjured RPTC), the “Na^+/K^+-ATPase activity, untreated RPTC, 50 μM vs 500 μM” value was “equivalent at all time points”. Moreover, the QO2 entry in data set [2] (day 4 after DCVC, 50 μM or 500 μM AscP) is “remained at day 1 levels”. In addition, in data set [2] (day 6 after DCVC, 500 μM AscP), the “QO2 higher than in RPTC grown in 50 μM AscP” value amounted to 49% and the “QO2 relative to controls” value is recorded as “equal to that of controls”. The “basal QO2, untreated RPTC, 50 μM vs 500 μM” value in data set [2] (uninjured RPTC) was “equivalent at all time points”.

As to `N[C@@H](CSC(Cl)=CCl)C(=O)O` [S-(1,2-dichlorovinyl)-L-cysteine], the “decrease in Na^+/K^+-ATPase activity” value in data set [1] (setting [3]) was ~65%. The “decrease in QO2” value in data set [2] (setting [3]) is “approximately 50%”.

In the case of “collagen IV: Human placenta collagen IV (Sigma); triple helical, containing only α1 and α2 chains”, in data set [1] (day 6 after DCVC injury, 50 μg/ml), the “Na^+/K^+-ATPase activity in injured RPTC” value was “significantly increased”. Besides, the “decrease in basal QO2” value in data set [2] (day 1 after DCVC injury, in presence of exogenous protein) is “approximately 50%”. Besides, the “repair of basal QO2” value in data set [2] (50 μg/ml) is recorded as “complete repair”; in data set [2] (5, 15, 50 μg/ml), “recovered basal QO2”. For the same compound, the “basal QO2 in untreated RPTC” value in data set [2] (uninjured RPTC, days 1 or 6, exogenous protein) is “no effect”.

Values taken from patent US7183383B2, “Uses of collagen IV” (The University of Arkansas for Medical Sciences, priority 2002, dated 2007).
